Laboratory results: patent publication US9119846B2, “Method and composition for enhancing cognition in alzheimer's patients” (NEURIM PHARMACEUTICALS (1991) LTD., priority 2003, dated 2015)

Tests used:
Assay type in all cases: in vivo, human
[1] = tested on: mixed age insomnia patients; test: Leeds Sleep Evaluation Questionnaire sleep quality, responder rate; details: 1 mg per night, 3 weeks
Description: The effects of a controlled release formulation of melatonin on subjectively assessed sleep quality were studied in a mixed age insomnia patients population (aged 20-80 years). The subjects were treated for 1 week with placebo to establish baseline characteristics and then for 3 weeks with 1 mg per night of controlled release melatonin or placebo. On the last three days of the baseline and treatment periods patients were asked to assess the quality of their sleep the previous night using the Leeds Sleep Evaluation Questionnaire (Parrott, A. C. and I. Hindmarch (1980). “The Leeds sleep evaluation questionnaire in psychopharmacological investigations—a review.” Psychopharmacology (Berl) 71(2): 173-9) which comprises two 100 mm visual analog scales relating to sleep quality. The distance of the patient mark from the right hand side in mm was measured and the mean answer of the two questions was averaged across the 3 consecutive nights. A responder was defined as a patient showing improvement of 10 mm or more on the averaged value. […] There was no difference in responder rate to placebo between the smokers (46%, n=13) and non-smokers groups (44% n=53, p=0.89, chi-square test).

elderly volunteers = test: Memory recall (Rivermead story test), crossover study; details: for Difference in recalls under melatonin and placebo / Mean number of recalled elements of the story: 2 hours after intake; for Mean number of recalled elements of the story: 2 mg controlled release
Description: The effect of melatonin (2 mg controlled release formulation) and placebo on memory recall (Rivermead story test) were assessed in 16 elderly volunteers (>55 years; aged 59 (SD 3.2) years). In a randomised, double-blind, crossover study the subjects were given a tablet of placebo in the evening to establish baseline and then a tablet of melatonin or placebo in a random order in the evening with one week with no treatment in between treatments. The Rivermead test was given to the patients at 2 and 12.5 hours after the administration of the tablet. […] Memory efficiency is increased with controlled release 2 mg melatonin for both recalls (immediate and delayed) in the subjects who were smoking or ceased smoking within the last 6 months prior to the study than non-smokers compared to baseline or crossover placebo.

[2] = tested on: elderly insomnia patients; test: Subjectively assessed quality of sleep (140 mm visual analog scale), randomized double-blind crossover study; details: controlled release 2 mg, 4 weeks, higher = better sleep
Description: The effect of a controlled release formulation of melatonin on subjectively assessed sleep quality in 17 elderly insomnia patients (aged 66.9 (SD 5.4) years) were studied in a randomized, double-blind, crossover study. Basal excretion of the main melatonin metabolite 6-sulfatoxymentonin in urine over the nocturnal period (8 p.m.-8 a.m.) was measured and the subjects were treated for 1 week with placebo to establish baseline characteristics followed by a two-period crossover design (4 weeks on either melatonin controlled release 2 mg or placebo) separated by a washout period (1 week). On the last week of the baseline and treatment periods patients were asked to assess the quality of their sleep the previous night by ticking a 140 mm visual analog scale. The distance (in mm) of the patient mark from the left hand side of the scale was measured and a higher number indicated better sleep. The difference from placebo values in the patient evaluation of restful sleep was calculated for smoking and non-smoking patients. There were no significant differences in the amount of nocturnal 6-sulfatoxymentonin excreted by smokers and non-smokers in the study population (3.5+1.5 vs. 6.3+5 μg 6-sulfatoxymentonin, respectively). […] No difference was found in the response to placebo between the smokers and non-smokers.

[3] = tested on: elderly insomnia patients; test: Psychomotor performance (total reaction time, mean reaction time); details: 2 mg per night, 3 weeks
Description: The effect of a controlled release formulation of melatonin on psychomotor performance (total reaction time, TRT, and Mean reaction time, MRT) in 40 elderly insomnia patients (aged 60.8 (SD 0.8) years) were studied. The subjects were treated for 2 weeks with placebo (baseline) and 3 weeks with 2 mg per night of controlled release melatonin. On the last two days of treatment psychomotor tests were taken by all patients to assess daytime vigilance.

## COc1ccc2[nH]cc(CCNC(C)=O)c2c1 [melatonin]
[1]; non-smokers, n=43
  rate of responders (improvement of 10 mm or more): 40%
[1]; smokers, n=16
  rate of responders (improvement of 10 mm or more): 62%
Elderly volunteers; 2 mg controlled release formulation, single administration
  memory tasks in the first hours of administration over the respective placebo values: improvement of memory tasks
Elderly volunteers; Non-smokers (n = 12)
  Difference in recalls under melatonin and placebo: −2.41
  Mean number of recalled elements of the story: 9.8
Elderly volunteers; Smokers (n = 4)
  Difference in recalls under melatonin and placebo: 3.5
  Mean number of recalled elements of the story: 14.8
[2]; Non smokers (n = 4)
  Mean change (in mm) in perceived quality of sleep with melatonin over placebo: −2.8 mm
[2]; Smokers (n = 10)
  Mean change (in mm) in perceived quality of sleep with melatonin over placebo: 15 mm
[3]; non-smokers
  improvement in psychomotor skills, MRT: 0.00062 s
  improvement in psychomotor skills, TRT: -5.21 ms
[3]; smokers
  improvement in psychomotor skills, MRT: -0.03607 s
  improvement in psychomotor skills, TRT: -38.95 ms
